System: Male Wistar Rats
Test: Morris Water Maze (MWM) probe test
Type: in vivo, rat
Details: 21 days through drinking water, probe test day 21, FIG. 4, MgT 435, PS 60 mg/kg bw/day

## phosphatidylserine [PS]
  time spent in target quadrant: significant increase

— patent US20250381220A1, “MAGNESIUM-L-THREONATE AND NEUROTRANSMITTER COMPOSITIONS AND RELATED METHODS” (Neuro Supplements, LLC, priority 2020, published 2025)
